# Assay results taken from patent publication US20170095440A1, “METHOD OF TREATING CANINE PANCREATITIS” (CK9, LLC, priority 2014, published 2017).
# “Also recorded” adds a separate entry of the source.
# Legend:
# [1] = system: rats; conditions: cited from earlier work
# [2] = system: dogs; conditions: 10, 30 and 100 mg/kg/day, oral capsules, 30-day study; cited from earlier work
# [3] = system: dogs with suspected chronic pancreatitis; assay: Serum C-reactive protein before and after treatment, clinical trial; format: in vivo, dog; conditions: 8 mg/kg q 8 hrs, n=17
# [4] = system: Han Wistar rats; assay: Rising-dose tolerance study, single oral gavage; format: in vivo, rat
# Experimental: The following parameters and end points were evaluated in the rising-dose phase of this study: clinical signs, body weights, body weight changes, food consumption, and gross necropsy findings.
# A total of 18 male and 24 female Han Wistar rats were received from Charles River Laboratories, Raleigh, N.C. The animals were examined and weighed on the day following receipt. The rising-dose phase animals were 8 weeks old and weighed between 176 g and 255 g at initiation of dosing and the multiple-dose phase animals were 8 weeks old and weighed between 172 g and 259 g at initiation of dosing.
# For the rising-dose study, the test article was administered to the appropriate animals as a single dose by oral gavage. At least a 3-day observation period was maintained before proceeding to the next dose level/group. The dose volume for each animal was based on the most recent body weight measurement. The doses were given using a syringe with attached gavage cannula. The first day of dosing for each group was designated as Study Day 1.
# The animals were removed from the cage and a detailed clinical observation was performed on the day of randomization and Days 1 to 8; 1 to 3 hours postdose on the day of dosing. Each animal was weighed on the day of randomization and Days 1 to 8. Food consumption was quantitatively measured for each animal weekly, starting Day −3, throughout the study.
# Rising-dose study animals were subjected to a complete necropsy examination, which included evaluation of the carcass and musculoskeletal system; all external surfaces and orifices; cranial cavity and external surfaces of the brain; and thoracic, abdominal, and pelvic cavities with their associated organs and tissues. Necropsy examinations were conducted under the supervision of a board-certified veterinary pathologist.
# [5] = system: dogs with suspected chronic pancreatitis; assay: Serum S100A12 before and after treatment, clinical trial; format: in vivo, dog; conditions: 8 mg/kg q 8 hrs, n=17
# [6] = system: Beagle dogs; assay: Rising-dose tolerance study, oral capsule; format: in vivo, dog
# Experimental: The following parameters and end points were evaluated in the rising-dose phase of this study: clinical signs, body weights, body weight changes, food consumption, electrocardiography, clinical pathology parameters (hematology, clinical chemistry, and urinalysis), and gross necropsy findings.
# 3 male and 3 female Beagle dogs were received from Marshall BioResources, North Rose, N.Y. The animals were examined and weighed on the day following receipt. The rising-dose phase animals were 6 months old and weighed 7.5 kg and 8.3 kg at initiation of dosing. The multiple-dose phase animals were 7 months old and weighed 7.4 kg and 7.6 kg at initiation of dosing.
# For the rising-dose phase, the test article was administered to the appropriate animals by oral capsule. At least a 3-day washout period was maintained before proceeding to the next dose level; therefore, dosing occurred on Days 1, 5, 9, 15, and 19. The dose amount for each animal was based on the most recent body weight measurement. The first day of dosing was designated as Study Day 1.
# The animals were removed from the cage and a detailed clinical observation was performed daily, beginning during Week −1, 1 to 3 hours postdose on days of dosing. Each animal was weighed on the day of randomization and Days 1, 5, 9, 15, 19, and 22. Food consumption was quantitatively measured for each animal daily, starting Week −1, throughout the dosing period, except for on the day of scheduled euthanasia. Electrocardiogram (ECG) measurements were obtained from all animals using leads I, II, III, aVR, aVL, and aVF and a chart speed of 50 mm/second. The ECG measurements were obtained once pretreatment and at approximately 3 hours postdose on Days 1, 5, 9, 15, and 19. Only lead II was evaluated by a board-certified veterinary cardiologist.
# Blood was collected by venipuncture of the jugular vein. Urine was collected overnight by cage pan drainage. After collection, samples were transferred to the clinical pathology laboratory for processing. The animals were fasted overnight prior to scheduled clinical pathology sample collections, but had access to water ad libitum. Samples were collected according to Table 5.
# Rising-dose phase animals surviving until scheduled euthanasia were weighed, samples for evaluation of clinical pathology parameters were collected as specified above, and the animals were euthanized by sodium pentobarbital injection, followed by exsanguination. Animals were fasted overnight before their scheduled necropsy.
# Rising-dose phase animals were subjected to a complete necropsy examination, which included evaluation of the carcass and musculoskeletal system; all external surfaces and orifices; cranial cavity and external surfaces of the brain; and thoracic, abdominal, and pelvic cavities with their associated organs and tissues. Necropsy examinations were conducted under the supervision of a board-certified veterinary pathologist.
# [7] = 100, 550 or 1300 mg/kg single dose
# [8] = following each dose, 10-250 mg/kg, methanesulfonate
smiles,measurement,setting,value
"CN(C)C(=O)COC(=O)Cc1ccc(OC(=O)c2ccc(NC(=N)N)cc2)cc1 [Camostat Mesilate, N,N-dimethylcarbamoylmethyl-4-(4-guanidinobenzoyloxy)phenylacetate methanesulfonate]",Clinical signs up to 30 minutes postdose,[1]; 1300 mg/kg/day,preening and a slight decrease in locomotor activity
same,Body weight gain,[1]; 550 and 1300 mg/kg/day,suppressed
same,Clinical signs immediately after dosing,"[1]; all treated groups: 100, 235, 550, 1300 mg/kg/day, 90 and 180 days",hypersalivation
same,Toxicity findings,[2],no significant toxicities
same,"Change in serum C-reactive protein, pre- vs post-treatment",[3]; methanesulfonate,no significant difference; also recorded: did not change significantly
same,Serum C-reactive protein concentration post-treatment (median),"[3]; pre-treatment median 0.1, post range 0.1-6.8, p=0.25",0.1 mg/L
same,Clinical observation not considered test article related,[4]; 550 mg/kg single dose,hair loss was observed in 1 animal
same,Necropsy observation not considered test article related,"[4]; 1300 mg/kg single dose, male",Dark discoloration of the thymus was observed in one 1300 mg/kg male
same,Clinical observation not considered a direct test article effect,"[4]; 1300 mg/kg single dose, possible aspiration during dosing",piloerection and abnormal breathing sounds were observed in 1 animal on Day 2
same,Body weight Days 1 to 8,[4]; [7],All animals gained weight
same,Food consumption,[4]; [7],no significant changes in food consumption
same,Gross necropsy findings,[4]; [7],no significant gross necropsy findings
same,Test article-related clinical observations,[4]; [7],no test article-related clinical observations
same,Survival,"[4]; single oral gavage 100, 550 or 1300 mg/kg, euthanasia Day 8, methanesulfonate",All animals survived to scheduled euthanasia; also recorded: No animals died
same,"Change in serum S100A12, pre- vs post-treatment",[5]; methanesulfonate,no significant difference; also recorded: did not change significantly
same,Serum S100A12 concentration post-treatment (median),"[5]; pre-treatment median 147, post range 58-746, p=0.8176",148 µg/L
same,Clinical observations,[6]; 10 mg/kg single oral dose,soft feces were noted in the female the day after dosing
same,Clinical observations,[6]; 30 mg/kg single oral dose,no clinical observations noted
same,Clinical observations,[6]; 100 mg/kg single oral dose,clear ocular discharge was observed in the female
same,Clinical observations,"[6]; 200 mg/kg single oral dose, methanesulfonate",slight salivation and soft feces/feces with mucoid material were observed in the male and female
same,Clinical observations,"[6]; 250 mg/kg single oral dose, methanesulfonate",severe salivation was observed following dosing in the male and female; also recorded: salivation and soft feces/feces with mucoid material
same,Gross necropsy findings,[6]; Day 22,no gross necropsy findings
same,Body weight,"[6]; between doses, 10-250 mg/kg",no notable changes
same,Food consumption,"[6]; between doses, 10-250 mg/kg",no notable changes
same,"Clinical chemistry, potential test article-related changes","[6]; female, following the 200 and 250 mg/kg doses",increased creatine kinase
same,Hematology parameters,[6]; [8],no toxicologically meaningful changes; also recorded: no notable changes
same,Urinalysis parameters,[6]; [8],no toxicologically meaningful changes; also recorded: no notable changes
same,"Clinical chemistry, potential test article-related changes","[6]; male, following the 250 mg/kg dose","increased creatinine, total bilirubin, and urea nitrogen"
same,Survival,"[6]; single oral doses 10, 30, 100, 200, 250 mg/kg, 1 male and 1 female, methanesulfonate",No rising-dose phase animals died; also recorded: All animals survived to scheduled euthanasia
